Source: ChEMBL document CHEMBL5338726, “Characterization of Chlorogenic Acid as a Two-Photon Fluorogenic Probe that Regulates Glycolysis in Tumor Cells under Hypoxia” (J Med Chem, 2023)
The source made the active and inactive calls. No cut-off for these calls is given here.

Tests used:
A-375 [1] = test: Radical scavenging activity in 2-ME treated oxidative stress induced human A-375 cells assessed as increase in fluorescent signal at 10 uM incubated for 30 mins by confocal microscopic analysis; format: functional, cell-based
A-375 [2] = test: Radical scavenging activity in 2-ME treated oxidative stress induced human A-375 cells assessed as increase in fluorescent signal at 10 uM incubated for 30 mins followed by washout and addition of ascorbic acid by confocal microscopic analysis; format: functional, cell-based
A-375 [3] = test: Radical scavenging activity in 2-ME treated oxidative stress induced human A-375 cells assessed as increase in fluorescent signal at 10 uM incubated for 30 mins followed by washout and addition of superoxide dismutase by confocal microscopic analysis; format: functional, cell-based
A-375 [4] = test: Radical scavenging activity in 2-ME treated oxidative stress induced tumor bearing BALB/c-nu mouse xenografted in human A-375 cells assessed as increase in fluorescence intensity at 10 uM incubated for 30 mins by confocal microscopic analysis; format: functional, cell-based
A-375 [5] = test: Radical scavenging activity in 2-ME treated oxidative stress induced tumor bearing BALB/c-nu mouse xenografted in human A-375 cells assessed as increase in fluorescence intensity at 10 uM incubated for 30 mins followed by washout and addition of ascorbic acid by confocal microscopic analysis; format: functional, cell-based
[6] = Drug localization in 2-ME treated human A-375 cells assessed as fluorescence in mitochondrial apparatus at 10 uM incubated for 30 mins by mito-tracker green dye based confocal microscopy analysis; format: ADME, cell-based; conditions: a-375, 0.5 h
[7] = Drug localization in 2-ME treated human A-375 cells assessed as fluorescence in lysosomes at 10 uM incubated for 30 mins by lyso-tracker red dye based confocal microscopy analysis; format: ADME, cell-based; conditions: a-375, 0.5 h
A-375 [8] = test: Antiproliferative activity against human A-375 cells assessed as reduction in cell growth at 1.25 to 10 uM incubated for 72 hrs under hypoxia condition by MTT assay; format: functional, cell-based; conditions: dose 1.25-10 µM
A-375 [9] = test: Antiproliferative activity against human A-375 cells assessed as reduction in cell growth at 1.25 to 10 uM incubated for 72 hrs under normoxia condition by MTT assay; format: functional, cell-based; conditions: dose 1.25-10 µM
A-375 [10] = test: Antiproliferative activity against human A-375 cells assessed as reduction in colony number at 1.25 to 10 uM measured after 10 days under hypoxia condition by crystal violet staining based analysis; format: functional, cell-based; conditions: dose 1.25-10 µM, time 10.0 day
A-375 [11] = test: Antiproliferative activity against human A-375 cells assessed as reduction in colony number at 1.25 to 10 uM measured after 10 days under normoxia condition by crystal violet staining based analysis; format: functional, cell-based; conditions: dose 1.25-10 µM, time 10.0 day
A-375 [12] = test: Antitumor activity in human A-375 cells xenografted in BALB/c-nu mouse model assessed as inhibition of tumor growth at 25 to 50 mg/kg, ip administered once daily and measured every 3 days for 18 days; format: functional, organism-based; conditions: dose 25-50 mg/kg, time 18.0 day
[13] = Toxicity in BALB/c-nu mouse xenografted with human A-375 cells assessed as effect on body weight at 25 to 50 mg/kg, ip administered once daily fo 18 days post treatment; format: organism-based; conditions: in vivo, 432 h, dose 25-50 mg/kg, time 18 day
A-375 [14] = test: Antitumor activity in human A-375 cells xenografted in BALB/c-nu mouse model assessed as decrease in AMPKalpha phosphorylation 50 mg/kg, ip by Western blot analysis; format: functional, organism-based
A-375 [15] = test: Reduction in […] O2 level in human A-375 cells at 2.5 to 10 uM incubated for 72 hrs under hypoxia condition by DHE based flow cytometry analysis; format: functional, cell-based; conditions: dose 2.5-10 µM
A-375 [16] = test: Reduction in […] O2 level in human A-375 cells at 2.5 to 10 uM incubated for 72 hrs under normoxia condition by DHE based flow cytometry analysis; format: functional, cell-based; conditions: dose 2.5-10 µM
A-375 [17] = test: Reduction in AMPK phosphorylation level in human A-375 cells at upto 20 uM incubated for 72 hrs under hypoxic condition by Western blot analysis; format: functional, cell-based
A-375 [18] = test: Reduction in AMPK phosphorylation level in human A-375 cells at upto 20 uM incubated for 72 hrs under normoxic condition by Western blot analysis; format: functional, cell-based
A-375 [19] = test: Reduction in extracellular acidification rates in human A-375 cells at upto 10 uM incubated for 6 hrs under hypoxia condition; format: functional, cell-based
A-375 [20] = test: Reduction in ATP production in human A-375 cells at upto 10 uM incubated for 6 hrs under hypoxia condition by real-time ATP rate assay; format: functional, cell-based
A-375 [21] = test: Increase in oxygen consumption rate in human A-375 cells at upto 10 uM measured after 6 hrs under hypoxia condition; format: functional, cell-based
A-375 [22] = test: Reduction in extracellular acidification rates in human A-375 cells at upto 10 uM incubated for 6 hrs under normoxia condition; format: functional, cell-based
A-375 [23] = test: Reduction in ATP production in human A-375 cells at upto 10 uM incubated for 6 hrs under normoxia condition by real-time ATP rate assay; format: functional, cell-based
A-375 [24] = test: Increase in oxygen consumption rate in human A-375 cells at upto 10 uM measured after 6 hrs under normoxia condition; format: functional, cell-based

Compound: O=C(/C=C/c1ccc(O)c(O)c1)O[C@@H]1C[C@](O)(C(=O)O)C[C@@H](O)[C@H]1O [CHLOROGENIC ACID]
- Activity (A-375 [1]): Active
- Activity (A-375 [2]): inactive
- Activity (A-375 [3]): inactive
- Activity (A-375 [4]): Active
- Activity (A-375 [5]): inactive
- Drug uptake [6]: Active
- Drug uptake [7]: Not Active
- Activity (A-375 [8]): Active
- Activity (A-375 [9]): inactive
- Activity (A-375 [10]): Active
- Activity (A-375 [11]): inactive
- Activity (A-375 [12]): Active
- Activity [13]: Non-Toxic
- Activity (A-375 [14]): Active
- Activity (A-375 [15]): Active
- Activity (A-375 [16]): inactive
- Activity (A-375 [17]): Active
- Activity (A-375 [18]): inactive
- Activity (A-375 [19]): Active
- Activity (A-375 [20]): Active
- Activity (A-375 [21]): Active
- Activity (A-375 [22]): inactive
- Activity (A-375 [23]): inactive
- Activity (A-375 [24]): inactive
